# Assay results as given in EP0960886B1, “Peptide T and related peptides in the treatment of inflammation, including multiple sclerosis” (priority 1992, dated 1993).
# Several values for one entry are separate records, joined by “and”; a condition that tells them apart may be missing. Equal entries are not always repeated.
# Experiments:
# [1] = Treatment of multiple sclerosis patients, case reports (Examples 1 to 4); type: in vivo, human
# Experimental: […] They were treated with prednisone and later with physiotherapy, with little effect. […] Tone was increased in both lower limbs and they had bilateral ankle clonus. Deep tendon reflexes were 2+ in the arms, 3+ in both knees and ankles and the plantar responses were extensor.
# They were started on Peptide T, 8.5 mg subcutaneously daily. […] Their frequency of nocturia was reduced, fine motor control improved, stuttering decreased, their legs were less spastic and they could stand with minimal support. […] The patient has remained stable rather than following their normal progressive downhill course for the months they have remained on Peptide T.
# A person was diagnosed with optic neuritis secondary to multiple sclerosis after presenting with numbness, impaired motor function, and blurred vision (20/300 bilaterally). Their somatic neurological examination was within normal limits. Minor episodes of numbness and impaired speech, balance and co-ordination had occurred over 6 months, as well as headache and loss of vision.
# Peptide T therapy was started.
# A person with their first episode of multiple sclerosis as manifest by optic neuritis and complete blindness in the right eye for 2 weeks, numbness in their right leg and then both legs. […] They had worsening of their ataxias with blurred vision and oscillopsia and was given prednisone 80 mg per day. […] Findings were typical of demyelination consistent with MS. […] The tone was increased in their lower limbs and they had non-sustained ankle clonus bilaterally. Their knee jerk was increased on the right compared to the left. Plantar responses were both upgoing. They had decreased position, vibration, light touch and cold sensation in the feet compared to the hands.
# About 2 months later the patient was started on Peptide T 8.5 mg subcutaneously daily. […] They experienced improved feelings in their fingers, fine movements of their hands and improved cognitive function.
# A person with a history of dizziness, ataxia, episodes of vertigo, impairment of motor function and generalised weakness of the legs was treated with dilantin and admitted to hospital. […] They were reassessed about 2 years later for episodes of dizziness, and complaints of leg spasms. […] Plantar response was downgoing and they had upwards gaze vertical nystagmus as previously noted.
# TNFα = test: Production of TNFα by Con A stimulated PBMC, radioimmune assay (Example 12); type: cell-based, human
# Experimental: Production of Tumour Necrosis Factor α (TNFα): 5x10^6 PBMC/ml were incubated in the presence of Con A (6.25µg/ml) for 48 hours in a humid atmosphere, 5% CO2, 37°C. Peptide T (10^-9M) was added at t=0 and 24 hours. At the end of incubation, SEPHADEX™ G25 (Pharmacia) was added (10mg/ml) and incubated for 10 minutes to remove mitogen. PBMC and SEPHADEX were pelleted by centrifugation and the supernatant tested for levels of TNFα using a TNFα radioimmune assay kit from Amersham. Samples were analysed in duplicate.
# [2] = Pharmacokinetics of Peptide T in vivo; conditions: following administration in vivo
# Jurkat = test: Growth of spontaneously proliferating cell line Jurkat; type: cell-based; conditions: p56^lck positive human T cell line
# Excerpt: Molt-4 is a human T lymphoma cell line, p56^lck negative, and Jurkat is a human T cell line, p56^lck positive, that will grow spontaneously in the absence of exogenous stimuli.
# Neopterin = test: Serum neopterin by RIA in patients with HIV disease; type: in vivo, human; conditions: one line per patient with HIV disease
# Excerpt: However, neopterin levels were elevated prior to Peptide T administration whereas serum IL-1 levels were normal.
# human neutrophils = test: TNF-induced neutrophil chemiluminescence (lucigenin-dependent); type: cell-based; conditions: Figure 10
# Experimental: Neutrophils. Neutrophils were isolated from whole blood from healthy blood donors. Separation was achieved by the rapid-single-step method of centrifugation of whole blood on FICOLL-HYPAQUE™. These were >99% viable and usually >98% pure.
# Peptides and TNF. TNF was a recombinant product produced in E. coli. Peptide T and analogue 505 (D-Ser-Ser-D-Thr-Thr-D-Thr-Thr-Tyr-D-Thr) were resuspended in Hank's Balanced Salt Solution (HBSS).
# To 100µl of 500-1000U/ml of TNF was added 10µl of peptide and after 5 min 100µl of 1x10^7 neutrophils/ml was added. The cells further incubated at 37°C/20 min and then tested for chemiluminescence activity. In some cases an agonist such as fMLP (10^-7M) was added. Chemiluminescence was measured in a luminometer (LKB). The results for Peptide T are presented in Figure 12 as peak rate of CL release. Lucigenin-dependent chemiluminescence was measured: this represents superoxide measurement. In another set of experiments the effects of analogue 505 on the LPS-induced neutrophil chemiluminescence were examined. In this case the LPS was essentially substituted for the TNF. The concentration of LPS was 0.005µg/ml.
# [3] = test system: Human umbilical vein endothelial cells; test: TNFα-induced tissue factor expression on endothelial cells, ELISA (Example 17); type: cell-based; conditions: TNFα 3 µg/ml for 4 hours; increasing concentrations of Peptide T
# Experimental: Methodology Human umbilical vein endothelial cells were cultured essentially by the method of Bevilacqua et al. Proc. Natl. Acad. Sci. USA 83 4533-4537 (1986). Cell cultures were treated with TNFα at 3 µg/ml for 4 hours at 37° in the presence or absence of Peptide T. Tissue factor expression was measured by an ELISA, following absorbence at 450nm.
structure (smiles),measurement,setting,value
"C[C@@H](N)C(=O)N[C@@H](CO)C(=O)N[C@H](C(=O)N[C@H](C(=O)N[C@H](C(=O)N[C@@H](CC(N)=O)C(=O)N[C@@H](Cc1ccc(O)cc1)C(=O)N[C@H](C(N)=O)[C@@H](C)O)[C@@H](C)O)[C@@H](C)O)[C@@H](C)O [Peptide T, D-Ala-Ser-Thr-Thr-Thr-Asn-Tyr-Thr-NH2]",intellectual and motor functioning,"[1]; Example 1: person with MS, 8.5 mg subcutaneously daily, within a few weeks, sustained over 6 months",marked symptomatic improvement
same,visual acuity bilaterally,"[1]; Example 2: person, optic neuritis secondary to MS, six days after start, before therapy 20/300 bilaterally",21/30
same,"fatigue, ataxia and fine motor function after restarting",[1]; Example 3: after stopping and restarting Peptide T,remarkable improvement
same,patient-reported symptoms after start of therapy,"[1]; Example 3: person with MS, 8.5 mg subcutaneously daily, within 1 to 2 weeks",subjective improvement
same,patient-reported symptoms,"[1]; Example 4: person, 8.5 mg subcutaneously daily, within 10 days","increased energy and intellectual function, and improved vision"
same,TNFα,"TNFα; PBMC+Con A (6.25µg/ml)+Peptide T 10^-9M, 48 hours, PBMC+Con A alone 69.0 ± 6.9",47.0 ± 0.1 fmol/100ul
same,TNFα,"TNFα; PBMC+RPMI+Peptide T, no Con A, 48 hours",<1 fmol/100ul
same,TNFα,"TNFα; RPMI+Peptide T (no cells), Peptide T 10^-9M",<1 fmol/100ul
same,peak plasma concentrations,[2],55 nM
same,growth of Jurkat cell line,Jurkat,did not significantly affect
same,[Neopterin],Neopterin; Pre-Peptide T (baseline),47.3 ± 0.8 nM and 27.8 ± 0.8 nM and 13.15 ± 2.85 nM and 52.0 ± 4.0 nM
same,[Neopterin],Neopterin; post-Peptide T,32.5 ± 3.5 nM and 19.75 ± 0.25 nM and 8.9 ± 0.6 nM and 16.85 ± 0.05 nM
same,activation of human neutrophils by TNF,human neutrophils,inhibits activation of human neutrophils by TNF
same,tissue factor expression,[3],progressively reduce tissue factor expression
